# Key:
# [1] = test system: TP53 signaling; assay: Nutlin-3a treatment after bleomycin injury in Sftpc-CreER; R26R-tdTomato mice, AGER immunostaining; conditions: uninjured (PBS) mice that received Nutlin-3a; 20 mg kg-1 d-1 intraperitoneal for ten days
# [2] = target: T1, Runx1 (Mus musculus, UniProt Q03347); assay: Lipofibroblast culture with TGF-B induced myofibrogenesis, Runx1 pharmacologic inhibition; assay type: cell-based; conditions: lipofibroblasts cultured in the presence of Ro 5-3335 and TGF-B for 48 hours
# T1 construct: Lipofibroblasts were cultured in the presence of Ro 5-3335 and TGF-B for 48 hours; endogenous in cells; host or cells: primary lung lipofibroblasts (mouse, inferred) in culture
# T1 sequence (Q03347 whole entry): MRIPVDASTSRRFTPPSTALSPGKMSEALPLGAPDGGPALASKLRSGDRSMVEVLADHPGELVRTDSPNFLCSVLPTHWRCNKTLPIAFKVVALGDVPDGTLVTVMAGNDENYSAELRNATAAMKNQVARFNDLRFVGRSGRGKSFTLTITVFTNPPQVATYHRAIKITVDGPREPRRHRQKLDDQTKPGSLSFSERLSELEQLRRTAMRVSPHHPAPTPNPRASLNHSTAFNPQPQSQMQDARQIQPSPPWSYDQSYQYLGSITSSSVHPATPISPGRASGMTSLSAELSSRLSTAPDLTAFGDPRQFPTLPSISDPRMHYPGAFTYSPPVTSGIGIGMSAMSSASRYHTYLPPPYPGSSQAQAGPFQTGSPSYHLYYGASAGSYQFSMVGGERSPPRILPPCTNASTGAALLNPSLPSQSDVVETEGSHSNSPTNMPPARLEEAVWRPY
SMILES,AGER+Sftpc-tdt+ cells in uninjured lungs [1],PDGFRA expression and cell shape of lipofibroblasts [2],aSMA expression and myofibrotic conversion [2]
COc1ccc(C2=N[C@@H](c3ccc(Cl)cc3)[C@@H](c3ccc(Cl)cc3)N2C(=O)N2CCNC(=O)C2)c(OC(C)C)c1 [Nutlin-3a],no AGER+Sftpc-tdt+ cells,–,–
O=C1CN=C(c2ccc[nH]2)c2cc(Cl)ccc2N1 [Ro 5-3335],–,maintained PDGFRA expression and their stellate shape,virtually no aSMA expression and myofibrotic conversion
